Laboratory results taken from PubChem BioAssay AID2060509 (Molecular Pharmacology Branch, DTP, NCI, 2025).

Tested on: 485176-168-R4-J1-PDC spheroids with HUVEC/MSC, viability
Assay: Anticancer human tumor 485176-168-R4-J1-PDC patient-derived pancreatic adenocarcinoma cell line growth inhibition [GQUAD]
Settings: for IC50: curve of first compound; for viability, T/C: stronger effect = lower value
Method in brief: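 Tumor cells were grown as complex spheroids with HUVEC endothelial cells and mesenchymal stem cells as stroma. G-quadruplex stabilizers were combined with targeted agents over half-log dilutions from near the clinical Cmax, or from 10 microM.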

[1] = second compound 0.0316 µM, first compound 0.0316 µM
[2] = second compound 0.0316 µM, first compound 0.1 µM
[3] = second compound 0.0316 µM, first compound 0.316 µM
[4] = second compound 0.0316 µM, first compound 1 µM
[5] = second compound 0.0316 µM, first compound 3.16 µM
[6] = second compound 0.0316 µM, first compound 10 µM
[7] = second compound 0.1 µM, first compound 0.0316 µM
[8] = second compound 0.1 µM, first compound 0.1 µM
[9] = second compound 0.1 µM, first compound 0.316 µM
[10] = second compound 0.1 µM, first compound 1 µM
[11] = second compound 0.1 µM, first compound 3.16 µM
[12] = second compound 0.1 µM, first compound 10 µM
[13] = second compound 0.316 µM, first compound 0.0316 µM
[14] = second compound 0.316 µM, first compound 0.1 µM
[15] = second compound 0.316 µM, first compound 0.316 µM
[16] = second compound 0.316 µM, first compound 1 µM
[17] = second compound 0.316 µM, first compound 3.16 µM
[18] = second compound 0.316 µM, first compound 10 µM
[19] = second compound 1 µM, first compound 0.0316 µM
[20] = second compound 1 µM, first compound 0.1 µM
[21] = second compound 1 µM, first compound 0.316 µM
[22] = second compound 1 µM, first compound 1 µM
[23] = second compound 1 µM, first compound 3.16 µM
[24] = second compound 1 µM, first compound 10 µM
[25] = second compound 3.16 µM, first compound 0.0316 µM
[26] = second compound 3.16 µM, first compound 0.1 µM
[27] = second compound 3.16 µM, first compound 0.316 µM
[28] = second compound 3.16 µM, first compound 1 µM
[29] = second compound 3.16 µM, first compound 3.16 µM
[30] = second compound 3.16 µM, first compound 10 µM
[31] = second compound 10 µM, first compound 0.0316 µM
[32] = second compound 10 µM, first compound 0.1 µM
[33] = second compound 10 µM, first compound 0.316 µM
[34] = second compound 10 µM, first compound 1 µM
[35] = second compound 10 µM, first compound 3.16 µM
[36] = second compound 10 µM, first compound 10 µM
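Also: spheroids exposed to compounds for seven days before readout.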
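For viability, T/C in this document: percent viability relative to DMSO vehicle control wells as 100%.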

**Q.** Which results are given for `C=CCn1c(=O)c2cnc(Nc3ccc(N4CCN(C)CC4)cc3)nc2n1-c1cccc(C(C)(C)O)n1` + CN(C)c1ccc(Nc2c3ccc(NC(=O)CCN4CCCC4)cc3nc3cc(NC(=O)CCN4CCCC4)ccc23)cc1?
**A.** IC50 (second compound 0.0316 µM): 554 nM; IC50 (second compound 0.1 µM): 544 nM; IC50 (second compound 0.316 µM): 344 nM; IC50 (second compound 1 µM): 450 nM; IC50 (second compound 3.16 µM): 507 nM; IC50 (second compound 10 µM): 459 nM; viability, T/C [1]: 98.2%; viability, T/C [2]: 89.9%; viability, T/C [3]: 79.2%; viability, T/C [4]: 19.5%; viability, T/C [5]: 7.62%; viability, T/C [6]: 4.64%; viability, T/C [7]: 101%; viability, T/C [8]: 88.2%; viability, T/C [9]: 76%; viability, T/C [10]: 21.3%; viability, T/C [11]: 8.2%; viability, T/C [12]: 4.88%; viability, T/C [13]: 116%; viability, T/C [14]: 93.7%; viability, T/C [15]: 53.8%; viability, T/C [16]: 17.2%; viability, T/C [17]: 6.62%; viability, T/C [18]: 4.69%; viability, T/C [19]: 88.7%; viability, T/C [20]: 84.9%; viability, T/C [21]: 62.5%; viability, T/C [22]: 21.5%; viability, T/C [23]: 10.6%; viability, T/C [24]: 4.67%; viability, T/C [25]: 93.1%; viability, T/C [26]: 92.8%; viability, T/C [27]: 71.8%; viability, T/C [28]: 18.2%; viability, T/C [29]: 12.4%; viability, T/C [30]: 4.45%; viability, T/C [31]: 84.4%; viability, T/C [32]: 75.1%; viability, T/C [33]: 62.5%; viability, T/C [34]: 26.4%; viability, T/C [35]: 9.3%; viability, T/C [36]: 6.12%

**Q.** `COc1ncnc(C2CC2)c1-c1ncc2cnn(Cc3ccc(-c4nc(C(F)(F)F)cn4C(C)C)cc3)c2n1` + CN(C)c1ccc(Nc2c3ccc(NC(=O)CCN4CCCC4)cc3nc3cc(NC(=O)CCN4CCCC4)ccc23)cc1 was tested. Which IC50 (second compound 0.0316 µM) did it give?
**A.** > 10000 nM

**Q.** What about the IC50 (second compound 0.1 µM) of the same compound?
**A.** > 10000 nM

**Q.** What about the IC50 (second compound 0.316 µM) of the same compound?
**A.** > 10000 nM

**Q.** And the IC50 (second compound 1 µM)?
**A.** > 10000 nM

**Q.** What about the IC50 (second compound 3.16 µM) of the same compound?
**A.** > 10000 nM

**Q.** And the IC50 (second compound 10 µM)?
**A.** > 10000 nM

**Q.** What about the viability, T/C [1] of the same compound?
**A.** 86.9%

**Q.** What about the viability, T/C [2] of the same compound?
**A.** 83.5%

**Q.** What about the viability, T/C [3] of the same compound?
**A.** 109%

**Q.** What about the viability, T/C [4] of the same compound?
**A.** 107%

**Q.** And the viability, T/C [5]?
**A.** 97.8%

**Q.** And the viability, T/C [6]?
**A.** 94.3%

**Q.** What about the viability, T/C [7] of the same compound?
**A.** 123%

**Q.** What about the viability, T/C [8] of the same compound?
**A.** 95.2%

**Q.** What about the viability, T/C [9] of the same compound?
**A.** 106%

**Q.** And the viability, T/C [10]?
**A.** 93.3%

**Q.** What about the viability, T/C [11] of the same compound?
**A.** 104%

**Q.** And the viability, T/C [12]?
**A.** 89.5%

**Q.** And the viability, T/C [13]?
**A.** 96.3%

**Q.** And the viability, T/C [14]?
**A.** 95.5%

**Q.** And the viability, T/C [15]?
**A.** 103%

**Q.** And the viability, T/C [16]?
**A.** 96%

**Q.** What about the viability, T/C [17] of the same compound?
**A.** 87.4%

**Q.** And the viability, T/C [18]?
**A.** 98%

**Q.** What about the viability, T/C [19] of the same compound?
**A.** 88.1%

**Q.** And the viability, T/C [20]?
**A.** 97.1%

**Q.** What about the viability, T/C [21] of the same compound?
**A.** 105%

**Q.** What about the viability, T/C [22] of the same compound?
**A.** 74.3%

**Q.** What about the viability, T/C [23] of the same compound?
**A.** 99.9%

**Q.** And the viability, T/C [24]?
**A.** 83.3%

**Q.** And the viability, T/C [25]?
**A.** 94.3%

**Q.** And the viability, T/C [26]?
**A.** 96.8%

**Q.** What about the viability, T/C [27] of the same compound?
**A.** 87.9%

**Q.** And the viability, T/C [28]?
**A.** 102%

**Q.** What about the viability, T/C [29] of the same compound?
**A.** 92.5%

**Q.** And the viability, T/C [30]?
**A.** 88.1%

**Q.** What about the viability, T/C [31] of the same compound?
**A.** 90.5%

**Q.** What about the viability, T/C [32] of the same compound?
**A.** 81.2%

**Q.** What about the viability, T/C [33] of the same compound?
**A.** 86.8%

**Q.** What about the viability, T/C [34] of the same compound?
**A.** 86.8%

**Q.** And the viability, T/C [35]?
**A.** 72.4%

**Q.** What about the viability, T/C [36] of the same compound?
**A.** 70.2%

**Q.** Which results are given for `Cc1[nH]c2ccccc2c1CCNCc1ccc(/C=C/C(=O)NO)cc1` + CN(C)c1ccc(Nc2c3ccc(NC(=O)CCN4CCCC4)cc3nc3cc(NC(=O)CCN4CCCC4)ccc23)cc1?
**A.** IC50 (second compound 0.0316 µM): 116 nM; IC50 (second compound 0.1 µM): 132 nM; IC50 (second compound 0.316 µM): 126 nM; IC50 (second compound 1 µM): 136 nM; IC50 (second compound 3.16 µM): 88.3 nM; IC50 (second compound 10 µM): 120 nM; viability, T/C (second compound 0.0316 µM, first compound 0.000999 µM): 102%; viability, T/C (second compound 0.0316 µM, first compound 0.00316 µM): 89.9%; viability, T/C (second compound 0.0316 µM, first compound 0.00999 µM): 82.7%; viability, T/C [1]: 69.4%; viability, T/C (second compound 0.0316 µM, first compound 0.0999 µM): 64.6%; viability, T/C [3]: 12.9%; viability, T/C (second compound 0.1 µM, first compound 0.000999 µM): 103%; viability, T/C (second compound 0.1 µM, first compound 0.00316 µM): 87.5%; viability, T/C (second compound 0.1 µM, first compound 0.00999 µM): 89.2%; viability, T/C [7]: 86.1%; viability, T/C (second compound 0.1 µM, first compound 0.0999 µM): 61.9%; viability, T/C [9]: 12.1%; viability, T/C (second compound 0.316 µM, first compound 0.000999 µM): 80.1%; viability, T/C (second compound 0.316 µM, first compound 0.00316 µM): 96.7%; viability, T/C (second compound 0.316 µM, first compound 0.00999 µM): 82.9%; viability, T/C [13]: 82%; viability, T/C (second compound 0.316 µM, first compound 0.0999 µM): 59.4%; viability, T/C [15]: 11.8%; viability, T/C (second compound 1 µM, first compound 0.000999 µM): 97.3%; viability, T/C (second compound 1 µM, first compound 0.00316 µM): 96.7%; viability, T/C (second compound 1 µM, first compound 0.00999 µM): 83%; viability, T/C [19]: 64.2%; viability, T/C (second compound 1 µM, first compound 0.0999 µM): 76.5%; viability, T/C [21]: 10%; viability, T/C (second compound 3.16 µM, first compound 0.000999 µM): 113%; viability, T/C (second compound 3.16 µM, first compound 0.00316 µM): 97.9%; viability, T/C (second compound 3.16 µM, first compound 0.00999 µM): 86%; viability, T/C [25]: 74.5%; viability, T/C (second compound 3.16 µM, first compound 0.0999 µM): 47.9%; viability, T/C [27]: 14.5%; viability, T/C (second compound 10 µM, first compound 0.000999 µM): 104%; viability, T/C (second compound 10 µM, first compound 0.00316 µM): 83.5%; viability, T/C (second compound 10 µM, first compound 0.00999 µM): 69.3%; viability, T/C [31]: 90.7%; viability, T/C (second compound 10 µM, first compound 0.0999 µM): 58.3%; viability, T/C [33]: 5.87%
